Test system: Molm 13-RES-luc cells that expressed FLT3-ITD/D835Y
Assay: MTT assay in tandutinib-resistant Molm 13-RES-luc cells
Format: cell-based
Conditions: Homo sapiens, tandutinib resistant Molm 13 cells, mean of 3 studies with 6 replicates each (n=18), read-out: IC50 pFLT3 (text: cell viability, MTT assay)

- IC50: 3.3 nM
SMILES: CC1(COc2ccc3c(c2)ncn3-c2ccc3cccc(N4CCC(N)CC4)c3n2)COC1 [Crenolanib, reference compound]
